Assay results from patent US10519109B2, “Glycopyrronium fatty acid salts and methods of making same” (QAAM PHARMACEUTICALS, LLC, priority 2015, dated 2019).
Where “and” joins values, the source holds several entries; their conditions need not be identical. Equal values may be shown once. Read-outs that look alike come from different tables or passages of the source.

Experiments:
[1] = potassium laurate solubility in various solvents (solvent added dropwise under sonication); format: physicochemical; conditions: thermodynamic from solid
Method: In order to select the reaction solvents and their optimized volumes, the solubility of potassium laurate in various solvents was checked by adding solvent to dissolve the solids under sonication. A vial was charged with potassium laurate (˜100 mg) and then solvent was added dropwise under sonication. The potassium laurate could not be dissolved with most solvents (200 vol.).

[2] = ~4 months at ambient conditions

With `C[N+]1(C)CCC(OC(=O)C(O)(c2ccccc2)C2CCCC2)C1` (centres unmarked) [glycopyrronium laurate] the “HPLC Results Glycopyrronium” value (Expt. 1A: Me-THF Solution at RT over weekend) was 87.72 AUC % and 87.72% AUC %, the “HPLC Results Glycopyrronium” value (Expt. 1B: Me-THF Solution at 50° C. over weekend, Bottom layer) was 49.47% AUC % and the “HPLC Results Glycopyrronium” value (Expt. 1B: Me-THF Solution at 50° C. over weekend, Top layer) was 57 AUC % and 57.13% AUC %. The “HPLC Results Glycopyrronium” value (Expt. 2A: Me-THF Solution in the presence of Lauric Acid at RT over weekend) was 89.44% AUC %, the “HPLC Results Glycopyrronium” value (Expt. 2B: Me-THF Solution in the presence of Lauric Acid at 50° C. over weekend, Bottom layer) was 65.60% AUC % and the “HPLC Results Glycopyrronium” value (Expt. 2B: Me-THF Solution in the presence of Lauric Acid at 50° C. over weekend, Top layer) was 69.58% AUC %.
With `CCCCCCCCCCCC(=O)[O-].[K+]` [potassium laurate] the solubility ([1]; organic solvent or mixture, Acetone, 50° C.) was < 5000 µg/mL, the solubility ([1]; organic solvent or mixture, Acetone, room temperature, read-out: potassium laurate solubility At Room Temperature) was < 5000 µg/mL and the solubility ([1]; organic solvent or mixture, Butyl Acetate, 50° C.) was < 5000 µg/mL. For the same compound, the solubility ([1]; organic solvent or mixture, Butyl Acetate, room temperature, read-out: potassium laurate solubility At Room Temperature) was < 5000 µg/mL, the solubility ([1]; organic solvent or mixture, Ethanol, room temperature, read-out: potassium laurate solubility At Room Temperature) was ~14000 µg/mL and the solubility ([1]; organic solvent or mixture, Ethyl Acetate, 50° C.) was < 5000 µg/mL. The solubility ([1]; organic solvent or mixture, Ethyl Acetate, room temperature, read-out: potassium laurate solubility At Room Temperature) was < 5000 µg/mL, the solubility ([1]; organic solvent or mixture, IPA, 50° C.) was < 5000 µg/mL and the solubility ([1]; organic solvent or mixture, IPA, room temperature, read-out: potassium laurate solubility At Room Temperature) was < 5000 µg/mL. For the same compound, the solubility ([1]; organic solvent or mixture, Isopropyl Acetate, 50° C.) was < 5000 µg/mL, the solubility ([1]; organic solvent or mixture, Isopropyl Acetate, room temperature, read-out: potassium laurate solubility At Room Temperature) was < 5000 µg/mL and the solubility ([1]; organic solvent or mixture, MEK, 50° C.) was < 5000 µg/mL. The solubility ([1]; organic solvent or mixture, MEK, room temperature, read-out: potassium laurate solubility At Room Temperature) was < 5000 µg/mL, the solubility ([1]; organic solvent or mixture, MIBK, 50° C.) was < 5000 µg/mL and the solubility ([1]; organic solvent or mixture, MIBK, room temperature, read-out: potassium laurate solubility At Room Temperature) was < 5000 µg/mL. For the same compound, the solubility ([1]; organic solvent or mixture, Methanol, room temperature, read-out: potassium laurate solubility At Room Temperature) was ~50000 µg/mL, the solubility ([1]; organic solvent or mixture, Methyl Acetate, 50° C.) was < 5000 µg/mL and the solubility ([1]; organic solvent or mixture, Methyl Acetate, room temperature, read-out: potassium laurate solubility At Room Temperature) was < 5000 µg/mL. For the same compound, the solubility ([1]; Water, room temperature, read-out: potassium laurate solubility At Room Temperature) was ~138000 µg/mL.
In the case of `C[N+]1(C)CCC(OC(=O)C(O)(c2ccccc2)C2CCCC2)C1` (centres unmarked) [glycopyrronium stearate], the degradation over time [2] is reported as “degradation was observed”.
